From patent publication EP0678293A2, “Composition containing pyridoxine ester, process for the preparation and use thereof” (F. HOFFMANN-LA ROCHE AG, priority 1994, dated 1995)
One block for each molecule: values may come before it.

Columns and labels:
[1] = cited from earlier work; for Löslichkeit in Fetten: Kummerow, J.Am Oil Chem. Soc. 33 1956, 116
[2] = direct use in ointments, creams and other skin preparations; no test described; cited from earlier work
[3] = Solubility of pyridoxine tripropionate in vegetable oil / lipophilic phases
Source text: 50 Gew% Pyridoxintripropionat werden vorgelegt und in 50 Gew% Pflanzenöl unter starkem Rühren gelöst.

Molecule: Cc1ncc(CO)c(CO)c1O.Cl [Pyridoxin-hydrochlorid]
- Löslichkeit in unpolaren Flüssigkeiten ([1]; in unpolaren Flüssigkeiten, background statement): praktisch unlöslich

Molecule: CC(=O)OCc1cnc(C)c(OC(C)=O)c1COC(C)=O [Pyridoxintriacetat]
- Löslichkeit in Fetten ([1]; Sakuragi): beinahe unlöslich

Molecule: CCCCCCCCCCCCCCCC(=O)OCc1cnc(C)c(OC(=O)CCCCCCCCCCCCCCC)c1COC(=O)CCCCCCCCCCCCCCC [Pyridoxintripalmitat]
- Löslichkeit in Olivenöl ([1]; bei 3 °C in Olivenöl, Sakuragi, Kummerow 1956): 0,1%

- Lösung in Pflanzenöl ([3]; 50 Gew% Pyridoxintripropionat in 50 Gew% Pflanzenöl, dissolved with vigorous stirring): homogene Lösung
- löslich in Pflanzenöl ([3]; in Pflanzenöl): ≤ 50 Gew.%
Molecule: CCC(=O)OCc1cnc(C)c(OC(=O)CC)c1COC(=O)CC [Pyridoxintripropionat]
- Löslichkeit in Fetten ([1]; Sakuragi): beinahe unlöslich
- Vitamin B₆ Wirksamkeit [2]: volle

Molecule: Pyridoxinoctanoat
- Löslichkeit in Pflanzenölen ([1]; in Pflanzenölen, Sakuragi, Kummerow 1956): ≤ 1%
